For five molecules, Ki and IC50 results are on record in US10676485B2, “Macrocyclic MCL-1 inhibitors and methods of use” (AbbVie Inc., priority 2017, dated 2020).

Assay [1] has as its target GST-MCL-1 (Homo sapiens (Human), UniProt Q07820). Put plainly: TR-FRET MCL-1 binding assay (competition with probe F-Bak). How it is done:
For the assay, an acoustic dispenser was used to prepare dilution series from 10 mM test compounds in 100% DMSO and directly transfer 160 nL into low volume 384-well assay plates. 8 μL of a protein/probe/antibody mix was then added to each well resulting in final concentrations listed below: Test compound: 11 three-fold dilutions beginning at 25 μM
The samples were then mixed on a shaker for 1 minute and incubated for an additional 2 hours at room temperature. For each assay plate, a probe/antibody and protein/antibody/probe mixture were included as a negative and a positive control, respectively. Fluorescence was measured on the Envision (Perkin Elmer) using a 340/35 nm excitation filter and 520/525 (F-Bak) and 495/510 nm (Tb-labeled anti-his antibody) emission filters. […] The TR-FRET assay can be performed in the presence of varying concentrations of human serum (HS) or fetal bovine serum (FBS). Compounds were tested both without HS and in the presence of 10% HS.
In general terms: TR-FRET usually uses a lanthanide donor and a delayed reading to cut background.

Assay [2] relates to AMO-1 human multiple myeloma tumor cell line. Kind of assay: AMO-1 cell viability assay (CellTiter-Glo). It counts as cell-based. Particulars: AMO1, read-out: AMO-1 Viability IC50 (μM), 10% FBS, 24 hours of compound treatment. A general note: In ATP-based viability assays light output follows the ATP content of the culture.
Protocol: In one exemplary set of conditions, NCI-H929 or AMO-1 (ATCC. Manassas, Va.) were plated 4.000 cells per well in 384-well tissue culture plates (Corning. Corning, N.Y.) in a total volume of 25 μL RPMI tissue culture medium supplemented with 10% fetal bovine serum (Sigma-Aldrich, St. Louis, Mo.) and treated with a 3-fold serial dilution of the compounds of interest with a Labcyte Echo from a final concentration of 10 μM to 0.0005 μM. Each concentration was tested in duplicate at least 3 independent times. A luminescent signal proportional to the number of viable cells following 24 hours of compound treatment was determined using the CellTiter-Glo® Luminescent Cell Viability Assay according to the manufacturer's recommendations (Promega Corp., Madison, Wis.). The plates were read in a Perkin Elmer Envision using a Luminescence protocol. To generate dose response curves the data is normalized to percent viability by setting the averages of the staurosporine (10 uM) and DMSO only control wells to 0% and (00)% viability respectively. The IC50 values for the compounds are generated by fitting the normalized data with Accelrys Assay Explorer 3.3 to a sigmoidal curve model using linear regression.
Assay [3] concerns NCI-H929 human multiple myeloma tumor cell line. Kind of assay: NCI-H929 cell viability assay (CellTiter-Glo). It counts as cell-based. The conditions noted are these: NCI-H929, read-out: H929 Viability IC50 (μM), 10% FBS, 24 hours of compound treatment.
The mark [4] stands for this setting: read-out: MCL-1 Binding Ki (nM, 10% HS), in the presence of 10% HS.
Setting [5] is: without HS, read-out: MCL-1 Binding Ki.

Molecules are shown by their SMILES. Where two headings read alike, the source gives them in different places.

Chain of GST-MCL-1 (Q07820 whole entry): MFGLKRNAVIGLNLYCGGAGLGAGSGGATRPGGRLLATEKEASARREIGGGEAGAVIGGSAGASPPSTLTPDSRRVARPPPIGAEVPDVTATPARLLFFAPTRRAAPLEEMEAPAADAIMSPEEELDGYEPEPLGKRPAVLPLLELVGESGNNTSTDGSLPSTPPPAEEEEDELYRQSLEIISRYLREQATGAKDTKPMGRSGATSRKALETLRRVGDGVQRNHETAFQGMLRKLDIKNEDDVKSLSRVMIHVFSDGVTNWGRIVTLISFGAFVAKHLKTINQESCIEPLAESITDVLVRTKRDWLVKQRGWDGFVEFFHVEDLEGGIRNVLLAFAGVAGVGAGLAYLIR

For the molecule `Cc1c(Cl)c2c(Cl)c(C)c1-c1c(-c3ccc(F)cc3)sc3ncnc(c13)O[C@@H](C(=O)O)Cc1cc(ccc1OCc1ccnc(C3COCCOC3)n1)OC[C@@H](CN1CCN(C)CC1)O2` [Example 30, (7R,16R)-19,23-dichloro-10-{[2-(1,4-dioxepan-6-yl)pyrimidin-4-yl]methoxy}-1-(4-fluorophenyl)-20,22-dimethyl-16-[(4-methylpiperazin-1-yl)methyl]-7,8,15,16-tetrahydro-18,21-etheno-13,9-(metheno)-6,14,17-trioxa-2-thia-3,5-diazacyclononadeca[1,2,3-cd]indene-7-carboxylic acid], the Ki (usually a dissociation constant, usually derived from enzyme kinetics or from competition with a known ligand) amounted to 0.16 nM in assay [1] (setting [4]) and 0.015 nM in assay [1] (setting [5]). The values for the IC50 in assay [2] and in assay [3] were 0.285 nM and 0.000974 µM, respectively.

In the case of `Cc1c(Cl)c2c(Cl)c(C)c1-c1c(-c3ccc(F)cc3)sc3ncnc(c13)O[C@@H](C(=O)O)Cc1cc(ccc1OCc1ccnc([C@H]3CC[C@](F)(COC[C@H]4COCCO4)CC3)n1)OC[C@@H](CN1CCN(C)CC1)O2` [Example 39, (7R,16R)-19,23-dichloro-10-({2-[(1S,4s)-4-({[(2R)-1,4-dioxan-2-yl]methoxy}methyl)-4-fluorocyclohexyl]pyrimidin-4-yl}methoxy)-1-(4-fluorophenyl)-20,22-dimethyl-16-[(4-methylpiperazin-1-yl)methyl]-7,8,15,16-tetrahydro-18,21-etheno-13,9-(metheno)-6,14,17-trioxa-2-thia-3,5-diazacyclononadeca[1,2,3-cd]indene-7-carboxylic acid], the Ki was found to be 0.06 nM in assay [1] (setting [4]) and 0.004 nM in assay [1] (setting [5]). Besides, the IC50 (in general, the concentration that inhibits the measured activity by half) was 0.235 nM in assay [2] and 0.000239 µM in assay [3].

As to `Cc1c(Cl)c2c(Cl)c(C)c1-c1c(C3CCC3)sc3ncnc(c13)O[C@@H](C(=O)O)Cc1cc(ccc1OCc1ccnc([C@H]3CC[C@H](OCC4COCCO4)CC3)n1)OC[C@@H](CN1CCN(C)CC1)O2` (stereo partly drawn) [Example 29, (7R,16R)-19,23-dichloro-1-cyclobutyl-10-[(2-{(1r,4r)-4-[(1,4-dioxan-2-yl)methoxy]cyclohexyl}pyrimidin-4-yl)methoxy]-20,22-dimethyl-16-[(4-methylpiperazin-1-yl)methyl]-7,8,15,16-tetrahydro-18,21-etheno-13,9-(metheno)-6,14,17-trioxa-2-thia-3,5-diazacyclononadeca[1,2,3-cd]indene-7-carboxylic acid], the Ki in assay [1] (setting [4]) was determined as 0.55 nM; in assay [1] (setting [5]), 0.011 nM. Besides, the half-maximal inhibitory concentration (IC50) in assay [2] is 0.0812 nM; in assay [3] it was 0.000346 µM.

`COc1ccccc1-c1nccc(COc2ccc3cc2C[C@H](C(=O)O)Oc2ncnc4sc(C[C@H]5COCCO5)c(c24)-c2c(C)c(Cl)c(c(Cl)c2C)O[C@H](CN2CCN(C)CC2)CO3)n1` [Example 19, (7R,16R)-19,23-dichloro-1-{[(2S)-1,4-dioxan-2-yl]methyl}-10-{[2-(2-methoxyphenyl)pyrimidin-4-yl]methoxy}-20,22-dimethyl-16-[(4-methylpiperazin-1-yl)methyl]-7,8,15,16-tetrahydro-18,21-etheno-13,9-(metheno)-6,14,17-trioxa-2-thia-3,5-diazacyclononadeca[1,2,3-cd]indene-7-carboxylic acid]: the figures for the Ki in assay [1] (setting [4]) and in assay [1] (setting [5]) were 0.64 nM and 0.156 nM, respectively. Moreover, the IC50 in assay [2] is 9.74 nM; in assay [3], 0.0152 µM.

`Cc1c(Cl)c2c(Cl)c(C)c1-c1c(-c3ccc(F)cc3)sc3ncnc(c13)O[C@@H](C(=O)O)Cc1cc(ccc1OCc1ccnc(N3CCN(S(=O)(=O)CC4COCCO4)CC3)n1)OC[C@@H](CN1CCN(C)CC1)O2` (stereo partly drawn) [Example 26, (7R,16R)-19,23-dichloro-10-[(2-{4-[(1,4-dioxan-2-yl)methanesulfonyl]piperazin-1-yl}pyrimidin-4-yl)methoxy]-1-(4-fluorophenyl)-20,22-dimethyl-16-[(4-methylpiperazin-1-yl)methyl]-7,8,15,16-tetrahydro-18,21-etheno-13,9-(metheno)-6,14,17-trioxa-2-thia-3,5-diazacyclononadeca[1,2,3-cd]indene-7-carboxylic acid]: the Ki stood at 1 nM in assay [1] (setting [4]) and 0.104 nM in assay [1] (setting [5]). Moreover, the IC50 was found to be 0.2 nM in assay [2] and 0.000241 µM in assay [3].
